How the values were obtained:
[1] = test system: HCT116 human colorectal carcinoma cells; assay: CellTiter-Glo Luminescent Cell Viability Assay; type: cell-based; conditions: HCT-116, 72 h, 3 days
Method in brief: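 HCT116 cells were exposed for 3 days to compound in triplicate at final concentrations of 5 to 0.0002 […] (1:3 dilutions). Viability was read by CellTiter-Glo luminescence, and IC50 values were calculated.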

[2] = test system: HCT116 colorectal carcinoma cells; assay: In vivo efficacy study, HCT116 xenograft; set-up: species or system Athymic Nude mice; conditions: for Body Weight (g) Mean ± SEM / Tumor Volume (mm^3) Mean ± SEM / Tumor Weight (g) Mean ± SD: HCT116 xenograft mice; for body weight versus vehicle group / reduction of tumor volume and tumor weight: HCT116 mouse model, compound 3 100 mg/kg BID, compound 136 30 mg/kg BID, 12 days; for reduction of tumor volume and tumor weight: versus vehicle
Description: Compound 3 were formulated with 10% absolute ethanol, 30% PEG400, 60% water containing 0.5% methyl cellulose and 0.5% Tween80®. 2×10^6 HCT116 colorectal carcinoma cells (ATCC® CCL-247) in PBS and Matrigel (1:1 in volume) were inoculated subcutaneously in the right flank of Athymic Nude mice at 6-7 weeks of age for tumor development. When the xenografts reached about 150 mm^3 in size, the tumor bearing mice were randomly grouped into six groups (n=6) and treated by oral gavage with vehicle (10% absolute ethanol, 30% PEG400, 60% water containing 0.5% methyl cellulose and 0.5% Tween80®, BID) or compound 3 at 100 mg/kg BID for 12 days. Tumor sizes were measured twice weekly in two dimensions using a caliper and the volume were expressed in mm^3 using the formula V=0.5×a×b^2 wherein a and b were the long and short diameters of the tumor, respectively. The efficacy study for compound 136 was carried out in the same manner as that of compound 3 except compound 136 was dosed at 30 mg/kg BID for 12 days.

[3] = molecular target: T1, DDB1DB/DCAF15 and RBM39 R1R2 complex (Homo sapiens, UniProt Q14498+Q66K64); assay: DCAF15 RBM39 Complex Formation Assay (FRET); type: binding; conditions: FRET ratio Em 665/Em 615, incubated overnight at 4° C.
T1 construct: Amino acids 150 to 331 of RBM39 were cloned into pGEX4T3; GST (from vector pGEX4T3); TEV cleavage site (N); made in house; host or cells: DDB1DB/His-DCAF15: baculovirus/Sf9 co-expression; RBM39 R1R2: E. coli (pGEX4T3)
T1 sequence (Q66K64 whole entry, the tested form may be a part): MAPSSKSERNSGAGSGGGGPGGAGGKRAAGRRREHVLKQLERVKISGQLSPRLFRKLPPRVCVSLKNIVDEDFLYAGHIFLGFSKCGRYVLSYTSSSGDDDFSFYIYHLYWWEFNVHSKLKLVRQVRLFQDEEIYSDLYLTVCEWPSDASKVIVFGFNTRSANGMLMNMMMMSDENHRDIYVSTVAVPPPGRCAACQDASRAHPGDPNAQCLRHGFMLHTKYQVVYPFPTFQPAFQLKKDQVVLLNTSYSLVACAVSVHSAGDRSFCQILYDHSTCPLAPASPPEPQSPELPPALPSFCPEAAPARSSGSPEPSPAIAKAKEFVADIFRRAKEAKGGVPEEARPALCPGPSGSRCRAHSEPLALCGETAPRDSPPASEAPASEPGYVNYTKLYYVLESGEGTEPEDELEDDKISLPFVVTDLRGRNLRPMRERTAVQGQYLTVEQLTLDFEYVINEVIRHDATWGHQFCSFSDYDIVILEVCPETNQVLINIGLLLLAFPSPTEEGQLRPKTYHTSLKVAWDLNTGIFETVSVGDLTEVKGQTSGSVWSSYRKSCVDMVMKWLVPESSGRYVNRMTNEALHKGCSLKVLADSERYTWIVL
T1 sequence (Q14498 150-331): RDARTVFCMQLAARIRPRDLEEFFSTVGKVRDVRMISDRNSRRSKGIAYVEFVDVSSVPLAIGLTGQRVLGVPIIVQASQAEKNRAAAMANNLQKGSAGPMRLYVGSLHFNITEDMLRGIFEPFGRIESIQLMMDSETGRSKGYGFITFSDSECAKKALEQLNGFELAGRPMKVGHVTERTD
T1 sequence (Q16531 with tags, fused parts or gaps DEL396-708 partner): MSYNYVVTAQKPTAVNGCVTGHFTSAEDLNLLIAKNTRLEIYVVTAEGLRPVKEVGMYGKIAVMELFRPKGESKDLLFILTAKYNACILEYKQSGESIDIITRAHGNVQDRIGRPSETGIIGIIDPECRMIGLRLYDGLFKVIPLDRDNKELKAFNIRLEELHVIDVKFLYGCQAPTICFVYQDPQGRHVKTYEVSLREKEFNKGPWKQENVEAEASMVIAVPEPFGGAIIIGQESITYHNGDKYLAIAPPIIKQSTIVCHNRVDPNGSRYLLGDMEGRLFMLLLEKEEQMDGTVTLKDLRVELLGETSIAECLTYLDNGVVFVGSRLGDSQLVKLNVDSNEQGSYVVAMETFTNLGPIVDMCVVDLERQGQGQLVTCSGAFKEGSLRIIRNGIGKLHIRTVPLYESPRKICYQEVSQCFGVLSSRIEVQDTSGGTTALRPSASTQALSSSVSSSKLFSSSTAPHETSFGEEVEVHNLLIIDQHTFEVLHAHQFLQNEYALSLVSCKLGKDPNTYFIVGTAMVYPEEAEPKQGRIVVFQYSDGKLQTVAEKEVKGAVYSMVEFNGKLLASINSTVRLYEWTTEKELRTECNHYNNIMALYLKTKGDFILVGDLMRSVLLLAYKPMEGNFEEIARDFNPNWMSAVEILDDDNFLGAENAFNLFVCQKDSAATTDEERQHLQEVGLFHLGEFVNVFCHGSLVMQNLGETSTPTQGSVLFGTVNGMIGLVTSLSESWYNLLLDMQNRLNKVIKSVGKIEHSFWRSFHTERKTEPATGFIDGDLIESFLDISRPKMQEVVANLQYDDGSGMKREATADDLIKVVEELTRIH
Method in brief: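 Ternary complex formation read by TR-FRET (Em 665/615, excitation 340 nm) after overnight incubation at 4° C of 20 nM baculovirus DDB1DB/His-DCAF15 and 50 nM E. coli RBM39 RRM1-RRM2 FLAG fragment with 14-point, 3-fold compound dilutions from 1 μM; EC50 from 4-parameter fit.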

[4] = cited from earlier work
[5] = cited from earlier work; for treatment-induced myelosuppressive effect: clinical dosing, indisulam 700 mg/m^2 IV every 3 weeks, E7820 100 mg q.d. oral; for oral bioavailability: in vivo
[6] = 100 mg/kg BID oral gavage for 12 days
[7] = 30 mg/kg BID oral gavage for 12 days

Row | SMILES | EC50 [1] | Body Weight (g) Mean ± SEM [2, 6] | Tumor Volume (mm^3) Mean ± SEM [2, 6] | Tumor Weight (g) Mean ± SD [2, 6] | body weight versus vehicle group [2] | reduction of tumor volume and tumor weight [2] | IC50 [3] | Body Weight (g) Mean ± SEM [2, 7] | Tumor Volume (mm^3) Mean ± SEM [2, 7] | Tumor Weight (g) Mean ± SD [2, 7] | measured drug concentration available (free drug) ([4]; according to the free drug principle) | plasma protein binding [4] | treatment-induced myelosuppressive effect [5] | oral bioavailability [5]
1 | Cc1ccc(NS(=O)(=O)c2cnn(C)c2)c2[nH]cc(C#N)c12 [Compound 3, N-(3-cyano-4-methyl-1H-indol-7-yl)-1-methyl-pyrazole-4-sulfonamide] | 250 to 1000 nM | 22.44 ± 0.16 g | 122.9 ± 33.9 mm^3 | .013 ± 0.005 g | no significant difference | statistically significant reduction | < 250 nM | – | – | – | – | – | – | –
2 | CC(C)(O)Cn1cc(S(=O)(=O)Nc2ccc(Cl)c3c(C#N)c[nH]c23)cn1 [Compound 136, N-(4-chloro-3-cyano-1H-indol-7-yl)-1-(2-hydroxy-2-methyl-propyl)pyrazole-4-sulfonamide] | 250 to 1000 nM | – | – | – | no significant difference | statistically significant reduction | < 250 nM | 21.4 ± 0.14 g | 175.7 ± 12.3 mm^3 | .083 ± 0.06 g | – | – | – | –
3 | Cc1ccc(NS(=O)(=O)c2cccc(C#N)c2)c2[nH]cc(C#N)c12 [Compound E7820, E7820] | – | – | – | – | – | – | – | – | – | – | less than 1% | greater than 99% | same myelosuppressive effects | good oral bioavailability
4 | NS(=O)(=O)c1ccc(S(=O)(=O)Nc2cccc3c(Cl)c[nH]c23)cc1 [Indisulam, indisulam] | – | – | – | – | – | – | – | – | – | – | – | – | treatment-induced myelosuppressive effect | poor oral bioavailability

— patent publication US20250368627A1, “PYRAZOLESULFONAMIDES AS ANTITUMOR AGENTS” (Peloton Therapeutics, Inc., a fully owned subsidiary of …, priority 2019, published 2025)
